In article PMC10975980, “Open Meter Duo: Low-Cost Instrument for Fluorimetric Determination of Cholinesterase Activity” (Sensors (Basel, Switzerland), 2024):

Target: T1, acetylcholinesterase from Electrophorus electricus (AChE, EC 3.1.1.7, type V-S) (Electrophorus electricus, UniProt O42275)
T1 construct: commercial native electric eel enzyme, type V-S (Merck), crude enzyme protein dissolved in PBS with BSA as stabilizer
Assay: fluorimetric indoxyl acetate assay (Open Meter Duo)
Type: biochemical
Description: fluorimetric indoxyl acetate assay (Open Meter Duo) on acetylcholinesterase from Electrophorus electricus (AChE, EC 3.1.1.7, type V-S)

T1 sequence (O42275 24-633): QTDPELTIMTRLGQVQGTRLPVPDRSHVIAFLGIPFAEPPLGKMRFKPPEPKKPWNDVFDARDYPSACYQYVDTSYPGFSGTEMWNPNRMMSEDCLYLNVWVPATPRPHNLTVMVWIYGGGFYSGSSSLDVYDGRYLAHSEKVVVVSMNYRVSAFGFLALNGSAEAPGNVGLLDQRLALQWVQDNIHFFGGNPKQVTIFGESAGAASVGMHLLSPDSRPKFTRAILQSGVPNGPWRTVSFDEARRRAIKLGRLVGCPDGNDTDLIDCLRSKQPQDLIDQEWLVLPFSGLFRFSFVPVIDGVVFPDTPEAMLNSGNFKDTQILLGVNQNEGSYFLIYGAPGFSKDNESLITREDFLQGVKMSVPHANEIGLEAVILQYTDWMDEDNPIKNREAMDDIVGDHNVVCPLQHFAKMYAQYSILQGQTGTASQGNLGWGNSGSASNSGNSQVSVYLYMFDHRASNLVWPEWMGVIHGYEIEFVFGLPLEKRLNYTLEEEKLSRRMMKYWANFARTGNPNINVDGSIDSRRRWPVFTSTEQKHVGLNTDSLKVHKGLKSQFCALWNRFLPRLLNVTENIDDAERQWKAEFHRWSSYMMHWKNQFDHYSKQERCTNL

Q: How did the IC50 turn out when `CNC(=O)Oc1cccc2c1OC(C)(C)C2` [Carbofuran] was run?
A: The IC50 was 84.3 nM.
